From ChEMBL document CHEMBL5465560, “Selectivity Literature for EUbOPEN Chemogenomic Library” (2024)

How the values were obtained:
[1] = molecular target: STE20/SPS1-related proline-alanine-rich protein kinase (Homo sapiens) (UniProt Q9UEW8); test: Selectivity interaction (KinomeScan (DiscoverX)) EUB0000092b STK39; conditions: at 10 µM
[2] = molecular target: T1, Peripheral plasma membrane protein CASK (Homo sapiens) (UniProt O14936); test: Selectivity interaction (KinomeScan (DiscoverX)) EUB0000655a CASK; conditions: at 10 µM
T1 sequence (whole entry): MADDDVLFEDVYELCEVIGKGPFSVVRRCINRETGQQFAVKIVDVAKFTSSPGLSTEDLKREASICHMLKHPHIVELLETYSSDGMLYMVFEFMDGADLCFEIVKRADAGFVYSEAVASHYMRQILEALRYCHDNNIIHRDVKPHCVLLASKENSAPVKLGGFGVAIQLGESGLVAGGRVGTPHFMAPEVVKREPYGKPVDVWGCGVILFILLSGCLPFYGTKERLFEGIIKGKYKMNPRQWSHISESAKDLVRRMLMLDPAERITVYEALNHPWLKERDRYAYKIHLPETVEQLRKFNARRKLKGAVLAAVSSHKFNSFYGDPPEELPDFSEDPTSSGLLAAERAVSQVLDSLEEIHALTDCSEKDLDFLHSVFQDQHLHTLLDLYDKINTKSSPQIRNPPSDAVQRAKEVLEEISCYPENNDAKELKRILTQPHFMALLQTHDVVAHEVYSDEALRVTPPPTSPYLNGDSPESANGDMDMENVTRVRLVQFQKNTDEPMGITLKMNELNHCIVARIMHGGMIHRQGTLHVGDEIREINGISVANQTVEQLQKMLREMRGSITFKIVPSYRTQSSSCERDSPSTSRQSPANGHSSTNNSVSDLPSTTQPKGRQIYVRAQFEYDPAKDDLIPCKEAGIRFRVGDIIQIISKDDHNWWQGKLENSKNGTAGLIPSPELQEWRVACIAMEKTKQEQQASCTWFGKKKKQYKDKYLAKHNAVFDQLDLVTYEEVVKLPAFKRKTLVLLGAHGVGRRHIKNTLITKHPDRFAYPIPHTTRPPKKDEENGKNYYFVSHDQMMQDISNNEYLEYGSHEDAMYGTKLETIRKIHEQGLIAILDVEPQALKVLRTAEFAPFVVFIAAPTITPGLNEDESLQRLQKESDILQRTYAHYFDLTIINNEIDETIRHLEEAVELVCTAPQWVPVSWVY

[3] = molecular target: Serine/threonine-protein kinase MRCK gamma (Homo sapiens) (UniProt Q6DT37); test: Selectivity interaction (KinomeScan (DiscoverX)) EUB0000655a CDC42BPG; conditions: at 10 µM
Serine/threonine-protein kinase MRCK gamma (Homo sapiens), sequence (Q6DT37 whole entry): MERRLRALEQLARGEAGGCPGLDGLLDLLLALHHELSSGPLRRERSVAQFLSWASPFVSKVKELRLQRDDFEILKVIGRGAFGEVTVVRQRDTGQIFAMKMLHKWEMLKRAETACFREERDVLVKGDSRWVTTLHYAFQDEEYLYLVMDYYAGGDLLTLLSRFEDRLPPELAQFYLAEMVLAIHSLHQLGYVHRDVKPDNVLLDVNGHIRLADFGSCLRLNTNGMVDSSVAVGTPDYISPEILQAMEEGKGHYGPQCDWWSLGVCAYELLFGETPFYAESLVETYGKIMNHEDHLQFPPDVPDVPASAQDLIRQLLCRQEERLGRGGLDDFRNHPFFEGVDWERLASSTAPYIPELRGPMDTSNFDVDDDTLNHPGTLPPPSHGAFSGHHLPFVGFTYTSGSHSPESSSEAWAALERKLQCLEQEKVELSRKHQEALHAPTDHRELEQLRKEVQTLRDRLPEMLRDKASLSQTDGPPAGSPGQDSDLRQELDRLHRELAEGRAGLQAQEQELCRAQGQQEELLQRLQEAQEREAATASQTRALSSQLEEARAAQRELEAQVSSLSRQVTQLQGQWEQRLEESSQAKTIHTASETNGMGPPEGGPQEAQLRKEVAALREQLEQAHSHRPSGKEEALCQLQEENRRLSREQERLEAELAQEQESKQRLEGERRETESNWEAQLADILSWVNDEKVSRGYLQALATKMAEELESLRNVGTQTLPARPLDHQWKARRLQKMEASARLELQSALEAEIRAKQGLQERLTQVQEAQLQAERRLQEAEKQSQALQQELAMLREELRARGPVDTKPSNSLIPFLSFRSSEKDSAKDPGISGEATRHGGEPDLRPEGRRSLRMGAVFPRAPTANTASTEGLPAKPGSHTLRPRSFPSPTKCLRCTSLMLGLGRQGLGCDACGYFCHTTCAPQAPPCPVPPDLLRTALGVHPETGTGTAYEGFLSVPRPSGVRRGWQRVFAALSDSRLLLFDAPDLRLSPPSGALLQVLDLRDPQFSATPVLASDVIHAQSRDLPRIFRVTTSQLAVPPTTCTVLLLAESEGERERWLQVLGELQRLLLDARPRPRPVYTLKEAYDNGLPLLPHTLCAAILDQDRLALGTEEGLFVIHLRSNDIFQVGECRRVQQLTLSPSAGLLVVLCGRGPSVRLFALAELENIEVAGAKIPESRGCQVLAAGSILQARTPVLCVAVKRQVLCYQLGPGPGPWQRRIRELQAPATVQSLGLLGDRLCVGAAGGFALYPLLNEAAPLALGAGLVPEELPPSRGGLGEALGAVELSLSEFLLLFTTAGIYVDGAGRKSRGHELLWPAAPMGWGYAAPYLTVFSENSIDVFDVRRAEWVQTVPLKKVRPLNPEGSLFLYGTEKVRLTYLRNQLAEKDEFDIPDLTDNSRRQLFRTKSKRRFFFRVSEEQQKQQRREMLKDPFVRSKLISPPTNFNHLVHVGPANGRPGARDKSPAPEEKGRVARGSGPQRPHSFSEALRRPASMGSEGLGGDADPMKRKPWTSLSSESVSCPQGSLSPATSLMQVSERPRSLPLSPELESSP

[4] = tested on: Tyrosine-protein kinase ABL1 (Homo sapiens), P00519 [F317I]; test: (§1) Selectivity interaction (ProQinase) EUB0000171b ABL1
[5] = molecular target: Tyrosine-protein kinase ABL1 (Homo sapiens, UniProt P00519); test: as §1
[6] = tested on: Tyrosine-protein kinase ABL1 (Homo sapiens), P00519 [T315I]; test: as §1
[7] = tested on: Tyrosine-protein kinase ABL1 (Homo sapiens), P00519 [G250E]; test: as §1
[8] = tested on: Tyrosine-protein kinase ABL1 (Homo sapiens), P00519 [M351T]; test: as §1
[9] = tested on: Tyrosine-protein kinase ABL1 (Homo sapiens), P00519 [E255K]; test: as §1
[10] = tested on: Tyrosine-protein kinase ABL1 (Homo sapiens), P00519 [H396P]; test: as §1
[11] = tested on: Tyrosine-protein kinase ABL1 (Homo sapiens), P00519 [Q252H]; test: as §1
[12] = tested on: Tyrosine-protein kinase ABL1 (Homo sapiens), P00519 [Y253F]; test: as §1
[13] = molecular target: Proto-oncogene tyrosine-protein kinase Src (Homo sapiens, UniProt P12931); test: Selectivity interaction (SelectScreen profiling (Invitrogen)) EUB0000607a SRC; conditions: at 2 µM
Proto-oncogene tyrosine-protein kinase Src, sequence (P12931 2-536 limits assumed): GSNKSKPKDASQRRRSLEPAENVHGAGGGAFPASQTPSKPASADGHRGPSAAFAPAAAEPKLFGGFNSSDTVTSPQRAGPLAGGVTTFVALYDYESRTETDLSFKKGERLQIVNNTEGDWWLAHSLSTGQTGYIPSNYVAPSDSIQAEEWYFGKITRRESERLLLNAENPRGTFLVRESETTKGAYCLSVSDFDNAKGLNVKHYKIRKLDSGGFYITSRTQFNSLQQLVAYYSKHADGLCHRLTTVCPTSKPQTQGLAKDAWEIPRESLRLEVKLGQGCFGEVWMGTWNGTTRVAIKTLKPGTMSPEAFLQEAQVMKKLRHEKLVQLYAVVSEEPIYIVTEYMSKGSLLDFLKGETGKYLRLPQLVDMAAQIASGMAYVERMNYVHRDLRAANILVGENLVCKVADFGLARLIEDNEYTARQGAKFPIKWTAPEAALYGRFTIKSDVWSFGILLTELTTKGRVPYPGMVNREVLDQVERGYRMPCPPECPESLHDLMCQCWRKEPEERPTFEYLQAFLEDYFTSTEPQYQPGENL

[14] = molecular target: SRSF protein kinase 3 (Homo sapiens) (UniProt Q9UPE1); test: Selectivity interaction (SelectScreen profiling (Invitrogen)) EUB0000607a SRPK3; conditions: at 2 µM
SRSF protein kinase 3 (Homo sapiens), sequence (Q9UPE1 whole entry): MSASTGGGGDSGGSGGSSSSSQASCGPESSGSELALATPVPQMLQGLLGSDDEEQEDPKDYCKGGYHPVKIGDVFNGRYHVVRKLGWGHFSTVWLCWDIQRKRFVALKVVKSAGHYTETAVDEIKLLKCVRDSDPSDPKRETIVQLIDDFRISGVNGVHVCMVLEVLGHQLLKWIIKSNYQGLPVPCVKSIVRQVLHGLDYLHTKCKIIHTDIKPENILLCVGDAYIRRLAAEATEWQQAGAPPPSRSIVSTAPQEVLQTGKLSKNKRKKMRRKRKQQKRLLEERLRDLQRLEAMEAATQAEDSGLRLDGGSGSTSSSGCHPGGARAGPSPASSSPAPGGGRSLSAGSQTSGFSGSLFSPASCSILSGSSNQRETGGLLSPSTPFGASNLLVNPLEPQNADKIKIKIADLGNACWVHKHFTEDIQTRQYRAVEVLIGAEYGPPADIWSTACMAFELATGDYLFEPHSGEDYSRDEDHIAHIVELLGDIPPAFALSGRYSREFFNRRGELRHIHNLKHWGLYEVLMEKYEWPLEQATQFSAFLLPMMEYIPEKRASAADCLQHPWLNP

[15] = molecular target: T2, Serine/threonine-protein kinase 3 (Homo sapiens) (UniProt Q13188); test: Selectivity interaction (Kinase panel (literature)) EUB0001199aCl STK3; conditions: at 1 µM
T2 sequence (whole entry): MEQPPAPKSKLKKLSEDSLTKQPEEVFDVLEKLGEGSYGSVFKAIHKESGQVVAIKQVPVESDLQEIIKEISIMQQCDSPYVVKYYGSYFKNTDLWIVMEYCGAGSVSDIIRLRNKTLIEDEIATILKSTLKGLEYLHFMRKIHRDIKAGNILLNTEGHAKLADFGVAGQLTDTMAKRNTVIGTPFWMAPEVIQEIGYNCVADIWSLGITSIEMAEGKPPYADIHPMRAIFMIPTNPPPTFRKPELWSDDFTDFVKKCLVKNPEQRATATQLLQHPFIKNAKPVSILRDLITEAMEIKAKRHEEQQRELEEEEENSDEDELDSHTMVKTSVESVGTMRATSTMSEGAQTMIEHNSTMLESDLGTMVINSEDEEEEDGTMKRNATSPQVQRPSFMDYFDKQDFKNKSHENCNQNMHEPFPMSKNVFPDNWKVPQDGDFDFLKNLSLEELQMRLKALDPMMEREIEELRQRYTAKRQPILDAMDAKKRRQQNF

[16] = molecular target: T3, Serine/threonine-protein kinase Nek3 (Homo sapiens) (UniProt P51956); test: Selectivity interaction (KinomeScan (DiscoverX)) EUB0001619a NEK3; conditions: at 1 µM
T3 sequence (whole entry): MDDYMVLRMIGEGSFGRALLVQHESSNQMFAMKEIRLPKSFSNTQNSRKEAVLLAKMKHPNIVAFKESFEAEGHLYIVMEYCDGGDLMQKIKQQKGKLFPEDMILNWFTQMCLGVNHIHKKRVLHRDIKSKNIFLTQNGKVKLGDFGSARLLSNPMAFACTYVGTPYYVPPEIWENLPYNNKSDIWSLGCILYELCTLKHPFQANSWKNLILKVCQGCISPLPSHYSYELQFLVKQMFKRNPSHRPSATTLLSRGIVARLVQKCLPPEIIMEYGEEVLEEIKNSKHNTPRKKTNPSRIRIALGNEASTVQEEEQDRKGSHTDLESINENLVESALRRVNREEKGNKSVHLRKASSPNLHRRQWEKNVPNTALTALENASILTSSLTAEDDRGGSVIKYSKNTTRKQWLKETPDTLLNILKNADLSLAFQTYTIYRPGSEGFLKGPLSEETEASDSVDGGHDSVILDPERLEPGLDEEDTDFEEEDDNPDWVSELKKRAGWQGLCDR

[17] = Selectivity interaction (KinomeScan (DiscoverX)) EUB0001619a CDPK1; conditions: at 1 µM

## CCC(=O)N1CCN(c2ccc(-n3c(=O)ccc4cnc5ccc(-c6cnc7ccccc7c6)cc5c43)cc2C(F)(F)F)CC1
[1]
  % of control: 100%

## CN(C)CCOc1ccc(-c2nc(-c3ccncc3)c(-c3ccc4c(c3)CC/C4=N\O)[nH]2)cc1
[2]
  % of control: 82%
[3]
  % of control: 32%

## C=CC(=O)Nc1cccc(C(=O)Nc2ccc(Nc3cc(-c4[nH]c(SC)nc4C)ccn3)cc2)c1
[4]; at 1 µM
  % of control: 102%
[4]; at 5 µM
  % of control: 82%
[5]; at 1 µM
  % of control: 96%
[5]; at 5 µM
  % of control: 71%
[6]; at 1 µM
  % of control: 91%
[6]; at 5 µM
  % of control: 82%
[7]; at 1 µM
  % of control: 88%
[7]; at 5 µM
  % of control: 89%
[8]; at 1 µM
  % of control: 87%
[8]; at 5 µM
  % of control: 61%
[9]; at 1 µM
  % of control: 94%
[9]; at 5 µM
  % of control: 88%
[10]; at 1 µM
  % of control: 93%
[10]; at 5 µM
  % of control: 71%
[11]; at 1 µM
  % of control: 96%
[11]; at 5 µM
  % of control: 65%
[12]; at 1 µM
  % of control: 85%
[12]; at 5 µM
  % of control: 64%

## CNC(=O)Nc1ccc(-c2nc(N3CC4CCC(C3)O4)c3cnn(C4CCC5(CC4)OCCO5)c3n2)cc1
[13]
  % of inhibition: 3%
[14]
  % of inhibition: 6%

## CN1Cc2nccc(-c3cn(C)nc3-c3ccc(F)cc3)c2C1=O
[15]
  % of inhibition: -2%

## N#Cc1cccc(-c2c[nH]c3ncnc(N4CCOCC4)c23)c1
[16]
  % of control: 100%
[17]
  % of control: 78%
